# Patent US10011629B2, “Nucleoside analogs for treatment of the flaviviridae family of viruses and cancer” (Cocrystal Pharma, Inc., priority 2015, dated 2018)
# pIC50: −log10 of the molar value. “Also recorded” adds a separate entry of the source. Read-outs that look alike come from different tables or passages of the source.
# Tests used:
# [1] = system: mitochondrial DNA (COXII gene) in HepG2 cells; test: Mitochondrial DNA level in HepG2 cells (real-time PCR)
# Protocol: This assay was used in all studies described in this application that determine the effect of compounds on mitochondrial DNA content. In this assay, low-passage-number HepG2 cells were seeded at 5,000 cells/well in collagen-coated 96-well plates. Test compounds were added to the medium to obtain final concentrations of 0 μM, 0.1 μM, 10 μM and 100 μM. […] The mitochondrial cytochrome c oxidase subunit II (COXII) gene and the ß-actin or rRNA gene were amplified from 5 μl of the eluted nucleic acids using a multiplex Q-PCR protocol with suitable primers and probes for both target and reference amplifications. […] For exon 3 of the ß-actin gene (GenBank accession number E01094) the sense, probe, and antisense primers are 5′-[…]-3′ (SEQ ID NO. 4), 5′-6-[…]-3′ (SEQ ID NO. 5) and 5′-[…]-3′ (SEQ ID NO. 6), respectively. The primers and probes for the rRNA gene are commercially available from Applied Biosystems. […] The arithmetic formula for this approach is given by 2-ΔΔCT, where ΔΔCT is (CT for average target test sample−CT for target control)−(CT for average reference test−CT for reference control) (see Johnson M R, K Wang, J B Smith, M J Heslin, R B Diasio. Quantitation of dihydropyrimidine dehydrogenase expression by real-time reverse transcription polymerase chain reaction. Anal. Biochem. 2000; 278:175-184). A decrease in mitochondrial DNA content in cells grown in the presence of drug indicated mitochondrial toxicity.
# [2] = system: nuclear DNA (ß-actin or rRNA gene) in HepG2 cells; test: Nuclear DNA level in HepG2 cells (real-time PCR); type: cell-based, human; conditions: Homo sapiens, HepG2, 336 h
# Protocol: This assay was used in all studies described in this application that determine the effect of compounds on mitochondrial DNA content. In this assay, low-passage-number HepG2 cells were seeded at 5,000 cells/well in collagen-coated 96-well plates. Test compounds were added to the medium to obtain final concentrations of 0 μM, 0.1 μM, 10 μM and 100 μM. […] The mitochondrial cytochrome c oxidase subunit II (COXII) gene and the ß-actin or rRNA gene were amplified from 5 μl of the eluted nucleic acids using a multiplex Q-PCR protocol with suitable primers and probes for both target and reference amplifications. […] For exon 3 of the ß-actin gene (GenBank accession number E01094) the sense, probe, and antisense primers are 5′-[…]-3′ (SEQ ID NO. 4), 5′-6-[…]-3′ (SEQ ID NO. 5) and 5′-[…]-3′ (SEQ ID NO. 6), respectively. The primers and probes for the rRNA gene are commercially available from Applied Biosystems. […] The comparative CT method uses arithmetic formulas in which the amount of target (COXII gene) is normalized to the amount of an endogenous reference (the B-actin or rRNA gene) and is relative to a calibrator (a control with no drug at day 7). The arithmetic formula for this approach is given by 2-ΔΔCT, where ΔΔCT is (CT for average target test sample−CT for target control)−(CT for average reference test−CT for reference control) (see Johnson M R, K Wang, J B Smith, M J Heslin, R B Diasio. Quantitation of dihydropyrimidine dehydrogenase expression by real-time reverse transcription polymerase chain reaction. Anal. Biochem. 2000; 278:175-184). A decrease in mitochondrial DNA content in cells grown in the presence of drug indicated mitochondrial toxicity.
# [3] = system: Primary Human Hepatocytes; test: Cellular egress from Primary Human Hepatocytes; conditions: sofosbuvir pre-incubated 10 μM 12 h; time 48 hr
# Protocol: FIGS. 6a and 6b are charts and tables showing cellular egress of Compound 9 (FIG. 6a) and sofosbuvir (FIG. 6b) from Primary Human Hepatocytes. The results are of freshly plated human hepatocytes ([…]) from a donor, where the cells were plated in 24-well plates. The compounds were pre-incubated at a concentration of 10 μM for 12 h, and cells were harvested at 0, 1, 2, 4, 10, 24 and 48 hours. The results for the monophosphate are shown in grey, for the diphosphate in orange, and for the triphosphate in blue.
# [4] = system: Huh-7 cells; test: Cellular pharmacology in Huh7 cells (intracellular metabolites)
# Protocol: Ice-cold 70% methanol was used as the extraction solvent. ddATP (10 nM) was used as the internal standard.
# [5] = system: HCV 1b (Huh 7 Clone B cells containing HCV Replicon RNA); test: HCV replicon assay; type: cell-based; conditions: Hepatitis C virus
# Protocol: Huh 7 Clone B cells containing HCV Replicon RNA were seeded in a 96-well plate at 5000 cells/well, and the compounds tested at 10 μM in triplicate immediately after seeding. Following five days incubation (37° C., 5% CO2), total cellular RNA was isolated by using versaGene RNA purification kit from Gentra. Replicon RNA and an internal control (TaqMan rRNA control reagents, Applied Biosystems) were amplified in a single step multiplex Real Time RT-PCR Assay. The antiviral effectiveness of the compounds was calculated by subtracting the threshold RT-PCR cycle of the test compound from the threshold RT-PCR cycle of the no-drug control (ΔCt HCV). A ΔCt of 3.3 equals a 1-log reduction (equal to 90% less starting material) in Replicon RNA levels. The cytotoxicity of the compounds was also calculated by using the ΔCt rRNA values. 2′-C-Me-C was used as the positive control. To determine EC90 and IC50 values^2, ΔCt: values were first converted into fraction of starting material^3 and then were used to calculate the % inhibition. […]
# [6] = system: cellular rRNA (internal control, measure of cytotoxicity); test: Cytotoxicity in HCV replicon assay (ΔCt rRNA); type: cell-based; conditions: human
# Protocol: (§1) Huh 7 Clone B cells containing HCV Replicon RNA were seeded in a 96-well plate at 5000 cells/well, and the compounds tested at 10 μM in triplicate immediately after seeding. Following five days incubation (37° C., 5% CO2), total cellular RNA was isolated by using versaGene RNA purification kit from Gentra. Replicon RNA and an internal control (TaqMan rRNA control reagents, Applied Biosystems) were amplified in a single step multiplex Real Time RT-PCR Assay. The antiviral effectiveness of the compounds was calculated by subtracting the threshold RT-PCR cycle of the test compound from the threshold RT-PCR cycle of the no-drug control (ΔCt HCV). A ΔCt of 3.3 equals a 1-log reduction (equal to 90% less starting material) in Replicon RNA levels. The cytotoxicity of the compounds was also calculated by using the ΔCt rRNA values. 2′-C-Me-C was used as the positive control. To determine EC90 and IC50 values^2, ΔCt: values were first converted into fraction of starting material^3 and then were used to calculate the % inhibition.
# [7] = Assay for bone marrow cytotoxicity; type: cell-based, human; conditions: human; organization LOBP; read-out: Bone marrow toxicity, CC50
# Protocol: (§2) Primary human bone marrow mononuclear cells can be obtained commercially from Cambrex Bioscience (Walkersville, Md.). CFU-GM assays is carried out using a bilayer soft agar in the presence of 50 units/mL human recombinant granulocyte/macrophage colony-stimulating factor, while BFU-E assays used a […] matrix containing 1 unit/mL erythropoietin (see Sommadossi J P, Carlisle R. Toxicity of 3′-azido-3′-deoxythymidine and 9-(1,3-dihydroxy-2-propoxymethyl) guanine for normal human hepatopoietic progenitor cells in vitro. Antimicrob. Agents Chemother. 1987; 31: 452-454; Sommadossi, J P, Schinazi, R F, Chu, C K, and Xie, M Y. Comparison of cytotoxicity of the (−) and (+) enantiomer of 2′,3′-dideoxy-3′-thiacytidine in normal human bone marrow progenitor cells. Biochem. Pharmacol. 1992; 44:1921-1925). Each experiment can be performed in duplicate in cells from three different donors. AZT is used as a positive control. […] Statistical analysis can be performed with Student's t test for independent non-paired samples.
# [8] = system: Primary human bone marrow mononuclear cells; test: Assay for bone marrow cytotoxicity; type: cell-based; conditions: organization Stem cell; read-out: Bone marrow toxicity, CC50
# Protocol: as §2
# [9] = Cytotoxicity in HCV replicon assay (ΔCt rRNA); type: cell-based; conditions: human; replicon cells; CC50; read-out: CC50 or % inhibit cytotoxicity
# Protocol: as §1
# [10] = system: HepG2 cells; test: Lactic acid production in HepG2 cells; type: cell-based, human; conditions: 14-day assay
# Protocol: To measure the effects of the compounds on lactic acid production, HepG2 cells from a stock culture were diluted and plated in 12-well culture plates at 2.5×10^4 cells per well. […] […] The culture medium was then filtered, and the lactic acid content in the medium was determined using a colorimetric lactic acid assay (Sigma-Aldrich). Since lactic acid product can be considered a marker for impaired mitochondrial function, elevated levels of lactic acid production detected in cells grown in the presence of test compounds would indicate a drug-induced cytotoxic effect.
# [11] = Homo sapiens, HepG2, read-out: % inhibition MitDNA
smiles,measurement,setting,value
"CC(C)OC(=O)[C@H](C)N[P@](=O)(OC[C@H]1O[C@@H](n2ccc(=O)[nH]c2=O)[C@](C)(F)[C@@H]1O)Oc1ccccc1 [Sofosbuvir, reference compound]",Summary (mitochondrial toxicity),[1],Slightly toxic
same,inhibition at 1 µM,[1]; [11],-12%
same,inhibition at 10 µM,[1]; [11],-18%
same,inhibition at 50 µM,[1]; [11],87%
same,pIC50,"[1]; Homo sapiens, HepG2, read-out: IC50 MitDNA, HepG2 cells, 14-day assay",4.44
same,MitDNA Content (% of control),"[1]; human, 14 days, 1 μM",57 (35-93) % of control
same,MitDNA Content (% of control),"[1]; human, 14 days, 10 μM",78 (69-89) % of control
same,MitDNA Content (% of control),"[1]; human, 14 days, 50 μM",200 (136-278) % of control
same,inhibition at 1 µM,[2]; read-out: % inhibition nDNA,-98%
same,inhibition at 10 µM,[2]; read-out: % inhibition nDNA,-51%
same,inhibition at 50 µM,[2]; read-out: % inhibition nDNA,93%
same,pIC50,"[2]; read-out: IC50 nDNA, HepG2 cells, 14-day assay",4.42
same,"2′-F, 2′Me UMP",[3],BLOQ
same,MI,[3],BLOQ
same,intracellular SOF,"[4]; Huh-7 cells, 50 μM, 4 hr",206.4 ± 3.2 pmol/10^6 cells
same,intracellular SOF-nuc,"[4]; Huh-7 cells, 50 μM, 4 hr",BLOQ
same,EC90,"[5]; Huh-7, HCV 1b replicon, numeric EC90, read-out: EC90 (μM or letter value) or % inhib HCV",0.8 µM
same,EC50,"[5]; Huh-7, HCV 1b replicon, numeric, read-out: EC50 (μM or letter value)",0.2 µM
"Nc1ccn([C@@H]2O[C@H](CO)[C@@H](O)[C@@]2(F)Br)c(=O)n1 [Compound 15, 2′-Deoxy-2′-bromo-2′-fluoro Cytidine]","inhibition at 5 days, 10 µM",[6],67.9%
same,inhibition at 10 µM,"[5]; Huh-7, HCV 1b replicon, 10 μM",99.9%
CC(C)OC(=O)[C@H](C)NP(=O)(OC[C@H]1O[C@@H](n2ccc(=O)[nH]c2=O)C(F)(Br)C1O)Oc1ccccc1 (stereo in doubt) [Compound 9],CC50,[7],> 100 µM
same,CC50,[8],> 100 µM
same,MitDNA Content (% of control),"[1]; HepG2 cells, 14-day assay, 10 μM, range in parentheses",187 (169-206) % of control
same,MitDNA Content (% of control),"[1]; HepG2 cells, 14-day assay, 50 μM, range in parentheses",64 (45-91) % of control
same,Summary (mitochondrial toxicity),"[1]; HepG2 cells, 14-day assay, mitochondrial/nuclear DNA and lactic acid",non-toxic up to 10 μM; also recorded: not toxic up to 10 μM
same,inhibition at 10 µM,[1]; [11],< 1%
same,inhibition at 50 µM,[1]; [11],67.8%
same,inhibition at 10 µM,[2]; read-out: % inhibition nDNA,5.2%
same,inhibition at 50 µM,[2]; read-out: % inhibition nDNA,49.8%
same,intracellular 7-DP,[4]; human,252 ± 14 pmol/10^6 cells
same,intracellular 7-MP,[4]; human,12.4 ± 1.5 pmol/10^6 cells
same,intracellular 7-TP,[4]; human,98.2 ± 2.2 pmol/10^6 cells
same,intracellular 9,[4]; human,318.4 ± 26.6 pmol/10^6 cells
same,CC50 at 5 days,[9],> 10 µM
same,EC90,"[5]; Huh-7, read-out: EC90 (μM or letter value) or % inhib HCV",0.1 to 1 µM
same,Lactic acid Production (% of control),[10]; 10 μM,89.5 ± 2.0 % of control
same,Lactic acid Production (% of control),[10]; 50 μM,111 ± 38.5 % of control
